From patent US20090311217A1, “3-SUBSTITUTED-1H-INDOLE COMPOUNDS, THEIR USE AS MTOR KINASE AND PI3 KINASE INHIBITORS, AND THEIR SYNTHESES” (priority 2008, published 2009) come the findings set out here.

pIC50: −log10 of the molar value. Like-named read-outs stand apart in the source and are kept apart here.

Holding throughout (format): biochemical
One assay addresses PI3K-alpha (Homo sapiens, UniProt P42336). Kind of assay: PI3K-alpha fluorescence polarization assay. Conditions: read-out: PI3Kα Avg. IC50. For orientation: Polarisation of emitted light reports the rotation of a fluorescent probe.
The target of the next assay is PI3K-gamma (Homo sapiens, UniProt P48736). Kind of assay: PI3K-gamma fluorescence polarization assay. Summed up: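 FP competition read-out: PIP3 produced displaces BODIPY-TMR-IP4 (5 nM) from GST-GRP1 PH domain (100 nM). Kinase step: 5 ng enzyme, 2.5 μM diC8-PIP2, 25 μM ATP, pH 7 HEPES/MgCl2, 1 h, 25° C; EDTA stop.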
Another assay deals with T1, human TOR (Homo sapiens, UniProt P42345).
T1 construct: FLAG
Kind of assay: mTOR enzyme assay (DELFIA, His6-S6K substrate). Particulars: read-out: mTOR Kinase Avg. IC50.

PI3K-alpha, sequence (P42336 whole entry, species assumed, the tested form may be a part): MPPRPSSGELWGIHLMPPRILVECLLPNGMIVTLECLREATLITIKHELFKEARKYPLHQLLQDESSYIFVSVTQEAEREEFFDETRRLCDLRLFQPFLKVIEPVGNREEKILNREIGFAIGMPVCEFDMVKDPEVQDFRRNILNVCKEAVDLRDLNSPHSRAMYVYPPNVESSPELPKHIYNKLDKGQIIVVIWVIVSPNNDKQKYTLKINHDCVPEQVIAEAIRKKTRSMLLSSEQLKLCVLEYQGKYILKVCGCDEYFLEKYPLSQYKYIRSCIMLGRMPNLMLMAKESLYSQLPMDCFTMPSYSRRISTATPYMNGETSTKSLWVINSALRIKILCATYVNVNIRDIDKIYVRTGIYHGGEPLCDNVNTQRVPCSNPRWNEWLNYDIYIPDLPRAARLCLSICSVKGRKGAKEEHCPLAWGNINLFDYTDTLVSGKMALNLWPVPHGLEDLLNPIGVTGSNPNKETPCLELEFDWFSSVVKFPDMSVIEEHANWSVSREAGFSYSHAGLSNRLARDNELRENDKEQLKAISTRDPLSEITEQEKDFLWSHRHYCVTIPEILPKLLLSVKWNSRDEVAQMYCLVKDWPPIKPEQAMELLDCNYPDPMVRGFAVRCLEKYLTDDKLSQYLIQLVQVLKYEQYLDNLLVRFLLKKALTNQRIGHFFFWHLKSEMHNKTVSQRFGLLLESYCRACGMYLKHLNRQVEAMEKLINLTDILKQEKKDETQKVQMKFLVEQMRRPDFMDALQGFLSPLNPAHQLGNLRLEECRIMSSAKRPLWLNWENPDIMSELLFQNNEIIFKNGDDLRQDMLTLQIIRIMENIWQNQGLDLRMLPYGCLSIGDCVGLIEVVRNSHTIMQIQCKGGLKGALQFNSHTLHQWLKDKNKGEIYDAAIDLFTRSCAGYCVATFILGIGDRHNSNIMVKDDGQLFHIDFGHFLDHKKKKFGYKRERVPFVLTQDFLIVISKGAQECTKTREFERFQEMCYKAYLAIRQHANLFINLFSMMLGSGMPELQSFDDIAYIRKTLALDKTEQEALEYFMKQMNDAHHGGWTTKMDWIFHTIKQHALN
PI3K-alpha, sequence (P27986 whole entry partner, species assumed, the tested form may be a part): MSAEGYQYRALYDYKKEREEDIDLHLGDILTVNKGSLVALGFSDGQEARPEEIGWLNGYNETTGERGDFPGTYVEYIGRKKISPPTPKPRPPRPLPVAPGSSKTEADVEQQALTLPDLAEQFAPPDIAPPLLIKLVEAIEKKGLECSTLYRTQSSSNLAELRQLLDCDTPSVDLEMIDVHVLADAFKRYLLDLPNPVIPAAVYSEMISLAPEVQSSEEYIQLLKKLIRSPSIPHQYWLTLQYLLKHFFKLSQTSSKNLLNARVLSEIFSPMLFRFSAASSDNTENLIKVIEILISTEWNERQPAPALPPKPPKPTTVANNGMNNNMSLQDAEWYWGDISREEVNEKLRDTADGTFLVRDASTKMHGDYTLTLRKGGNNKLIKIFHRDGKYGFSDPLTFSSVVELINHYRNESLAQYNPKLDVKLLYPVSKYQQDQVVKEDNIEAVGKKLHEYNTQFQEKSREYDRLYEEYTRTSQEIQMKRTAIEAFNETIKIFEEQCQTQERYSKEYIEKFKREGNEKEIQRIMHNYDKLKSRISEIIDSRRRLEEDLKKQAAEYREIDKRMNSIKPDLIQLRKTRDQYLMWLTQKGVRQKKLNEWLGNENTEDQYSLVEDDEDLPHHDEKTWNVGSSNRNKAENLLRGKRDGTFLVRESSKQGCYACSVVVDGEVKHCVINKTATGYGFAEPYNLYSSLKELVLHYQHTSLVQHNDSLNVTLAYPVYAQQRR
PI3K-gamma, sequence (P48736 whole entry, species assumed, the tested form may be a part): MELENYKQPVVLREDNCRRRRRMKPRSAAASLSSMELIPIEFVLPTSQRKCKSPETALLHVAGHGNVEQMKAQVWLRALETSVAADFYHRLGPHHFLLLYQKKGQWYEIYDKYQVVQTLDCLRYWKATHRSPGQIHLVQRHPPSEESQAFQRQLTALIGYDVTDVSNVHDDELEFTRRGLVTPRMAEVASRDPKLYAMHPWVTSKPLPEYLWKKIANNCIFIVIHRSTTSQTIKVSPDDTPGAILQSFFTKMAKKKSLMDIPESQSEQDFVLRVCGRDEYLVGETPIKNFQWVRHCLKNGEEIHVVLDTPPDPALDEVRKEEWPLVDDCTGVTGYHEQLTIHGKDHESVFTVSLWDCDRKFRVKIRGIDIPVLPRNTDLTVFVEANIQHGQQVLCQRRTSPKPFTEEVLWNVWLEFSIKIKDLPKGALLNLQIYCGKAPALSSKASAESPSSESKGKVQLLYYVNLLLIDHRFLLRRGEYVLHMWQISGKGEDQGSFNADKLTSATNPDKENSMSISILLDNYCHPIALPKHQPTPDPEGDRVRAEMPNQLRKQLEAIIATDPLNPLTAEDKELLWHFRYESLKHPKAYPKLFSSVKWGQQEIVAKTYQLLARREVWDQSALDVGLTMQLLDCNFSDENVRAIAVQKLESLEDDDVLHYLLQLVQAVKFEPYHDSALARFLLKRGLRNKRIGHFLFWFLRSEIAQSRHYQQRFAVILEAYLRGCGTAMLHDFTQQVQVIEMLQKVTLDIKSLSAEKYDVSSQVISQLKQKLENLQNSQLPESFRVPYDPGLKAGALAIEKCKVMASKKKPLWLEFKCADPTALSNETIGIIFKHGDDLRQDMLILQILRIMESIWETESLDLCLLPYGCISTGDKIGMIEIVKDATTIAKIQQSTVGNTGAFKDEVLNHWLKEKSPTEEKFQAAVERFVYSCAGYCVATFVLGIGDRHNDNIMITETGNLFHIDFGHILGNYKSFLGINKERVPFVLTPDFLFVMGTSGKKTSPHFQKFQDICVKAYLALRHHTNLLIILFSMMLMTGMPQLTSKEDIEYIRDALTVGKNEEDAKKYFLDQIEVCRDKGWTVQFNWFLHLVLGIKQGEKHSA

For the compound `COc1ccc2c(c1)c(/C=C1\Oc3cc(O)ccc3C1=O)c(C(=O)N1CCOCC1)n2CCN1CCN(C)CC1` [Example 412, (2Z)-6-Hydroxy-2-({5-methoxy-1-[2-(4-methylpiperazin-1-yl)ethyl]-2-(morpholin-4-ylcarbonyl)-1H-indol-3-yl}methylene)-1-benzofuran-3(2H)-one], the negative-log IC50 (pIC50) on PI3K-alpha was 7.98; against PI3K-gamma (PI3Kγ Avg. IC50), 6.05; at human TOR it was 5.55.
In the same order, the values of `CN(C)c1ccc(-c2cccc3c2c(/C=C2\Oc4cc(O)cc(O)c4C2=O)cn3C)cc1` [Example 385, (2Z)-2-({4-[4-(Dimethylamino)phenyl]-1-methyl-1H-indol-3-yl}methylene)-4,6-dihydroxy-1-benzofuran-3(2H)-one] are 5.55, 5.12 and 7.74.
For `COc1ccc2c(c1)c(/C=C1\Oc3cc(O)cc(O)c3C1=O)c(C1CCCC1)n2CCN1CCN(C)CC1` [Example 410, (2Z)-2-({2-cyclopentyl-5-methoxy-1-[2-(4-methylpiperazin-1-yl)ethyl]-1H-indol-3-yl}methylene)-4,6-dihydroxy-1-benzofuran-3(2H)-one] the same measures were 8.52, 6.93 and 9.19.
In the same order, the values of `O=C1C(=Cc2c(-c3ccccc3)n(CCC3CCNCC3)c3ccccc23)Oc2cc(O)cc(O)c21` [Example 158, 4,6-dihydroxy-2-{[2-phenyl-1-(2-piperidin-4-ylethyl)-1H-indol-3-yl]methylene}-1-benzofuran-3(2H)-one] are 5.64, 5.31 and 5.34.
Consider `COc1ccc2[nH]cc(C=C3Oc4cc(SC)ccc4C3=O)c2c1` [Example 434, 2-[(5-Methoxy-1H-indol-3-yl)methylene]-6-(methylthio)-1-benzofuran-3(2H)-one], for which the figures for the pIC50 on PI3K-alpha, against PI3K-gamma (PI3Kγ Avg. IC50) and at human TOR were under 5.00, under 5.00 and under 4.70, respectively.
Turning to `CCn1c(C)c(/C=C2\Oc3ccc(NC(=O)Nc4ccc(OCCCCN(C)C)cc4)cc3C2=O)c2cc(OC)ccc21` [Compound 668, 1-{4-[4-(dimethylamino)butoxy]phenyl}-3-{(2Z)-2-[(1-ethyl-5-methoxy-2-methyl-1H-indol-3-yl)methylidene]-3-oxo-2,3-dihydro-1-benzofuran-5-yl}urea], the pIC50 is 8.54 at PI3K-alpha, 7.91 on PI3K-gamma (PI3Kγ Avg. IC50) and 6.53 on human TOR.
Turning to `COc1ccc2c(c1)c(/C=C1\Oc3ccc(NC(=O)Nc4ccc(C(=O)N(C)CCN(C)C)cc4)cc3C1=O)c(C)n2CCN1CCN(C)CC1` [Compound 649, N-[2-(dimethylamino)ethyl]-4-({[(2Z)-2-({5-methoxy-2-methyl-1-[2-(4-methylpiperazin-1-yl)ethyl]-1H-indol-3-yl}methylene)-3-oxo-2,3-dihydro-1-benzofuran-5-yl]carbamoyl}amino)-N-methylbenzamide], the results for the pIC50 on PI3K-alpha, against PI3K-gamma (PI3Kγ Avg. IC50) and on human TOR were 9.40, 7.72 and 7.51, respectively.
In the same order, the values of `O=C1/C(=C/c2c(-c3ccccc3)[nH]c3ccccc23)Oc2c(O)cccc21` [Example 67, (2Z)-7-hydroxy-2-[(2-phenyl-1H-indol-3-yl)methylene]-1-benzofuran-3(2H)-one] are 6.48, 6.52 and 5.08.
For `O=C1C(=Cc2c[nH]c3cccc(Br)c23)Oc2cc(O)cc(O)c21` [Example 174, 2-[(4-bromo-1H-indol-3-yl)methylene]-4,6-dihydroxy-1-benzofuran-3(2H)-one] the same measures were 5.82, under 5.00 and 5.15.
On to `O=C1C(=Cc2c(-c3ccc(O)cc3)[nH]c3ccccc23)Oc2cc(O)cc(O)c21` [Example 206, 4,6-dihydroxy-2-{[2-(4-hydroxyphenyl)-1H-indol-3-yl]methylene}-1-benzofuran-3(2H)-one], for which the negative-log IC50 (pIC50) on PI3K-alpha is 6.24; at PI3K-gamma (PI3Kγ Avg. IC50), 5.98; on human TOR it was 7.19.
For `COc1ccc2[nH]c(-c3c(C)nn(C)c3C)c(/C=C3\Oc4ccc(NC(=O)Nc5ccc(C(=O)N6CCN(C)CC6)cc5)cc4C3=O)c2c1` [Compound 689, 1-[(2Z)-2-{[5-methoxy-2-(1,3,5-trimethyl-1H-pyrazol-4-yl)-1H-indol-3-yl]methylidene}-3-oxo-2,3-dihydro-1-benzofuran-5-yl]-3-{4-[(4-methylpiperazin-1-yl)carbonyl]phenyl}urea] the same measures were 9.70, 8.60 and 8.40.
In the same order, the values of `N#CCCCCn1c(-c2ccccc2)c(C=C2Oc3cc(O)cc(O)c3C2=O)c2ccccc21` [Example 224, 5-{3-[(4,6-dihydroxy-3-oxo-1-benzofuran-2(3H)-ylidene)methyl]-2-phenyl-1H-indol-1-yl}pentanenitrile] are 6.12, under 5.00 and 6.32.
On to `N#CCCCn1cc(C=C2Oc3cc(O)cc(O)c3C2=O)c2c(Br)cccc21` [Example 230, 4-{4-bromo-3-[(4,6-dihydroxy-3-oxo-1-benzofuran-2(3H)-ylidene)methyl]-1H-indol-1-yl}butanenitrile], for which the pIC50 on PI3K-alpha was 5.69; on PI3K-gamma (PI3Kγ Avg. IC50), under 5.00; on human TOR it was 5.47.
Consider `CNC(=O)Nc1ccc2c(c1)C(=O)/C(=C/c1c(-c3c(C)nn(C)c3C)n(CCN(C)CCN(C)C)c3ccc(OC)cc13)O2` [Compound 665, 1-[(2Z)-2-{[1-(2-{[2-(dimethylamino)ethyl](methyl)amino}ethyl)-5-methoxy-2-(1,3,5-trimethyl-1H-pyrazol-4-yl)-1H-indol-3-yl]methylidene}-3-oxo-2,3-dihydro-1-benzofuran-5-yl]-3-methylurea], for which the values for the pIC50 at PI3K-alpha, at PI3K-gamma (PI3Kγ Avg. IC50) and on human TOR were 8.26, 6.90 and 7.41, respectively.
Take `CNC(=O)Nc1ccc2c(c1)C(=O)/C(=C/c1c(-c3nc(C(C)C)no3)n(CCN3CCN(C)CC3)c3ccc(OC)cc13)O2` [Compound 621, 1-[(2Z)-2-({5-methoxy-2-[3-(1-methylethyl)-1,2,4-oxadiazol-5-yl]-1-[2-(4-methylpiperazin-1-yl)ethyl]-1H-indol-3-yl}methylidene)-3-oxo-2,3-dihydro-1-benzofuran-5-yl]-3-methylurea]: the pIC50 on PI3K-alpha is 8.46; on PI3K-gamma (read-out: PI3Kγ Avg. IC50) it was 6.45; at human TOR, 6.65.
As to `CNC(=O)Nc1ccc2c(c1)C(=O)/C(=C/c1c(-c3c(C)nn(C)c3C)[nH]c3ccc(OCCOC)cc13)O2` [Compound 680, 1-[(2Z)-2-{[5-(2-methoxyethoxy)-2-(1,3,5-trimethyl-1H-pyrazol-4-yl)-1H-indol-3-yl]methylidene}-3-oxo-2,3-dihydro-1-benzofuran-5-yl]-3-methylurea], the pIC50 at PI3K-alpha is 5.72; at PI3K-gamma (PI3Kγ Avg. IC50), 5.22; on human TOR, 6.27.
In the case of `CNC(=O)Nc1cc2c(cc1C)O/C(=C\c1c(C)n(CCN3CCN(C)CC3)c3ccc(OC)cc13)C2=O` [Compound 640, 1-[(2Z)-2-({5-methoxy-2-methyl-1-[2-(4-methylpiperazin-1-yl)ethyl]-1H-indol-3-yl}methylene)-6-methyl-3-oxo-2,3-dihydro-1-benzofuran-5-yl]-3-methylurea], the pIC50 was 6.31 on PI3K-alpha, 5.22 on PI3K-gamma (PI3Kγ Avg. IC50) and 5.84 at human TOR.

By pIC50 is commonly meant −log10 of the IC50, conventionally taken in molar units.
